This is an account of results in patent US8865623B2, “Herbicidally active cyclic diones and derivatives thereof, processes for their preparation, compositions, and method of controlling weeds” (Syngenta Limited, priority 2009, dated 2014).

Common to all, as to format: in vivo
Assay [1] has as its system Echinochloa crus-galli (ECHCG). The assay can be described thus: Pre-emergence herbicidal activity, glasshouse pot test. Particulars: evaluated after 13 days; for pest or weed control at 250 g/ha: Echinochloa crus-galli, 312 h, Rate 250 g/ha, pre-emergence spray, read-out: Pre-emergence activity ECHCG (100=total damage to plant; 0=no damage to plant); for ECHCG damage to plant (100=total damage to plant; 0=no damage to plant): pre-emergence, rate 250 g/ha. The method, boiled down: (§1)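 After sowing in standard soil, pots were cultivated for one day (pre-emergence) or eight days (post-emergence), then sprayed. Plants were watered twice daily in the glasshouse, and damage was rated 13 days after treatment, 0 being none and 100 total.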

In assay [2] the test system is Alopecurus myosuroides (ALOMY). The assay is described as above. Particulars: evaluated after 13 days; for pest or weed control at 250 g/ha: Alopecurus myosuroides, 312 h, Rate 250 g/ha, pre-emergence spray, read-out: Pre-emergence activity ALOMY (100=total damage to plant; 0=no damage to plant); for ALOMY damage to plant (100=total damage to plant; 0=no damage to plant): pre-emergence, rate 250 g/ha. The method, boiled down: as §1

Assay [3] has as its system Avena fatua (AVEFA). Described as above. Particulars: evaluated after 13 days; for pest or weed control at 250 g/ha: Avena fatua, 312 h, Rate 250 g/ha, pre-emergence spray, read-out: Pre-emergence activity AVEFA (100=total damage to plant; 0=no damage to plant); for AVEFA damage to plant (100=total damage to plant; 0=no damage to plant): pre-emergence, rate 250 g/ha. The method, boiled down:
as §1

Assay [4] deals with Lolium perenne (LOLPE). The description is as above. Particulars: evaluated after 13 days; for pest or weed control at 250 g/ha: Lolium perenne, 312 h, Rate 250 g/ha, pre-emergence spray, read-out: Pre-emergence activity LOLPE (100=total damage to plant; 0=no damage to plant); for LOLPE damage to plant (100=total damage to plant; 0=no damage to plant): pre-emergence, rate 250 g/ha. The method, boiled down: as §1

Assay [5] relates to Echinochloa crus-galli (ECHCG). The assay is described as follows: Post-emergence herbicidal activity, glasshouse pot test. Particulars: rate 250 g/ha, evaluated after 13 days; for pest or weed control at 250 g/ha: Echinochloa crus-galli, 312 h, glasshouse, read-out: Post-emergence activity ECHCG (100=total damage to plant; 0=no damage to plant). The method, boiled down: as §1

For assay [6], the system named is Alopecurus myosuroides (ALOMY). The assay is described as above. The note with it: rate 250 g/ha, evaluated after 13 days; for pest or weed control at 250 g/ha: Alopecurus myosuroides, 312 h, glasshouse, read-out: Post-emergence activity ALOMY (100=total damage to plant; 0=no damage to plant). The method, boiled down: as §1
For assay [7], the system named is Avena fatua (AVEFA). Described as above. Particulars: rate 250 g/ha, evaluated after 13 days; for pest or weed control at 250 g/ha: Avena fatua, 312 h, glasshouse, read-out: Post-emergence activity AVEFA (100=total damage to plant; 0=no damage to plant). The method, boiled down:
as §1

Assay [8] has as its system Lolium perenne (LOLPE). The description is as above. Particulars: rate 250 g/ha, evaluated after 13 days; for pest or weed control at 250 g/ha: Lolium perenne, 312 h, glasshouse, read-out: Post-emergence activity LOLPE (100=total damage to plant; 0=no damage to plant). The method, boiled down: as §1

SMILES strings stand for the structures.

For the compound `CCc1ccc(Oc2ccc(C#N)cc2C(F)(F)F)cc1C1=C(O)CC(C)(C)CC1=O` [Example A-290], the pest or weed control at 250 g/ha in assay [1] came out at 20%; in assay [2], 0%; with Avena fatua (AVEFA) [3], 0%; in the assay on Lolium perenne (LOLPE) [4], 0%; in assay [5], 60%; in assay [6] it was 0%. In addition, the pest or weed control at 250 g/ha with Avena fatua (AVEFA) [7] stood at 0%; in the assay on Lolium perenne (LOLPE) [8], 10%.

Turning to `CCc1ccc(Oc2nc3ccc(Cl)cc3s2)cc1C1=C(O)CC(C)(C)CC1=O` [Example A-287], the pest or weed control at 250 g/ha worked out at 100% in assay [1]; 100% in assay [2]; 90% with Avena fatua (AVEFA) [3]; 100% in the assay on Lolium perenne (LOLPE) [4]; 100% in assay [5]; 100% in assay [6]. Besides, the pest or weed control at 250 g/ha with Avena fatua (AVEFA) [7] and with Lolium perenne (LOLPE) [8] was 100% throughout.

As to `CCc1ccc(Oc2ccc(C#N)cc2F)cc1C1=C(O)C(C)(C)OC(C)(C)C1=O` [Example A-21], the pest or weed control at 250 g/ha in assay [1] came to 30%; in assay [2], 0%; in the assay on Avena fatua (AVEFA) [3] it was 0%; in the assay on Lolium perenne (LOLPE) [4], 20%; in assay [5] it was 100%; in assay [6], 100%. The pest or weed control at 250 g/ha stood at 60% in the assay on Avena fatua (AVEFA) [7] and 70% in the assay on Lolium perenne (LOLPE) [8].

Consider `CCc1ccc(Oc2ccc(Cl)cc2)cc1C1=C(O)CC(C)(C)CC1=O` [Example A-26], for which the pest or weed control at 250 g/ha in assay [1] worked out at 100%; in assay [2] it was 70%; with Avena fatua (AVEFA) [3] it was 40%; in the assay on Lolium perenne (LOLPE) [4], 80%; in assay [5], 100%; in assay [6], 80%. In addition, the pest or weed control at 250 g/ha in the assay with Avena fatua (AVEFA) [7] is 40%; in the assay on Lolium perenne (LOLPE) [8] it was 70%.

For `CCc1ccc(Oc2ccc(C#N)cc2C(F)(F)F)cc1C1=C(O)C(C)(C)OC(C)(C)C1=O` [Example A-74], the pest or weed control at 250 g/ha in assay [1] turned out to be 100%; in assay [2] it was 60%; in the assay on Avena fatua (AVEFA) [3] it was 90%; in the assay with Lolium perenne (LOLPE) [4], 100%; in assay [5] it was 100%; in assay [6] it was 90%. Further, the pest or weed control at 250 g/ha in the assay on Avena fatua (AVEFA) [7] and in the assay with Lolium perenne (LOLPE) [8] was 80% throughout.

Take `CCc1ccc(Oc2nc3ccc(F)cc3nc2Cl)cc1C1=C(O)C(C)(C)OC(C)(C)C1=O` [Example A-173]: the pest or weed control at 250 g/ha in assay [1] stood at 50%; in assay [2] it was 0%; with Avena fatua (AVEFA) [3], 0%; in the assay on Lolium perenne (LOLPE) [4], 10%; in assay [5] it was 20%; in assay [6], 0%. Also, the pest or weed control at 250 g/ha in the assay on Avena fatua (AVEFA) [7] and with Lolium perenne (LOLPE) [8] was 10% in each case.

As to `CCc1ccc(Oc2ccc(C#N)cc2F)cc1C1=C(O)CC(C)(C)CC1=O` [Example A-87], the pest or weed control at 250 g/ha in assay [1] turned out to be 60%; in assay [2], 30%; in the assay on Avena fatua (AVEFA) [3], 20%; in the assay on Lolium perenne (LOLPE) [4], 40%; in assay [5], 80%; in assay [6], 70%. Also, the pest or weed control at 250 g/ha in the assay with Avena fatua (AVEFA) [7] and in the assay on Lolium perenne (LOLPE) [8] was 40% each time.

For the compound `CCc1ccc(Oc2ccc(I)cn2)cc1C1=C(O)C(C)(C)OC(C)(C)C1=O` [Example A-163], the pest or weed control at 250 g/ha in assay [1] stood at 100%; in assay [2], 70%; in the assay with Avena fatua (AVEFA) [3], 70%; in the assay on Lolium perenne (LOLPE) [4] it was 100%; in assay [5], 100%; in assay [6], 90%. Moreover, the pest or weed control at 250 g/ha in the assay on Avena fatua (AVEFA) [7] was found to be 90%; with Lolium perenne (LOLPE) [8], 100%.

`CCCC(=O)OC1=C(c2cc(Oc3ccc(C#N)cc3F)ccc2CC)C(=O)C(C)(C)OC1(C)C` [Example P-3]: the “ECHCG damage to plant (100=total damage to plant; 0=no damage to plant)” value in assay [1] and in assay [5] was 100 in each case. For the same compound, the “ALOMY damage to plant (100=total damage to plant; 0=no damage to plant)” value in assay [2] stood at 70; in assay [6], 90. Moreover, the “AVEFA damage to plant (100=total damage to plant; 0=no damage to plant)” value is 70 in the assay with Avena fatua (AVEFA) [3] and 60 with Avena fatua (AVEFA) [7]. Besides, the “LOLPE damage to plant (100=total damage to plant; 0=no damage to plant)” value worked out at 100 with Lolium perenne (LOLPE) [4] and 90 in the assay with Lolium perenne (LOLPE) [8].

As for `CCc1ccc(Oc2ccc(F)c(F)c2)cc1C1=C(O)C(C)(C)OC(C)(C)C1=O` [Example A-177], the pest or weed control at 250 g/ha in assay [1] is 60%; in assay [2], 0%; in the assay with Avena fatua (AVEFA) [3], 0%; with Lolium perenne (LOLPE) [4], 30%; in assay [5], 70%; in assay [6], 0%. For the same compound, the pest or weed control at 250 g/ha in the assay on Avena fatua (AVEFA) [7] amounted to 20%; with Lolium perenne (LOLPE) [8], 40%.

As for `CCc1ccc(Oc2ccc(C(F)(F)F)cc2[N+](=O)[O-])cc1C1=C(O)[C@H]2CC[C@H](C2)C1=O` [Example A-344], the pest or weed control at 250 g/ha in assay [1] came out at 100%; in assay [2], 40%; with Avena fatua (AVEFA) [3], 30%; in the assay on Lolium perenne (LOLPE) [4], 80%; in assay [5] it was 90%; in assay [6] it was 60%. For the same compound, the pest or weed control at 250 g/ha amounted to 90% with Avena fatua (AVEFA) [7] and 70% in the assay on Lolium perenne (LOLPE) [8].

`CCc1ccc(Oc2ccc(F)cc2)cc1C1=C(O)CCCC1=O` [Example A-29]: the pest or weed control at 250 g/ha in assay [1] stood at 40%; in assay [2], 0%; with Avena fatua (AVEFA) [3] it was 10%; with Lolium perenne (LOLPE) [4], 30%; in assay [5] it was 70%; in assay [6], 0%. In addition, the pest or weed control at 250 g/ha in the assay on Avena fatua (AVEFA) [7] was 0%; in the assay with Lolium perenne (LOLPE) [8] it was 10%.

`CCc1ccc(Oc2ccc(C(F)(F)F)cc2Br)cc1C1=C(O)C(C)(C)OC(C)(C)C1=O` [Example A-78]: the pest or weed control at 250 g/ha in assay [1] was 100%; in assay [2], 100%; with Avena fatua (AVEFA) [3] it was 80%; in the assay on Lolium perenne (LOLPE) [4], 100%; in assay [5], 90%; in assay [6], 100%. Further, the pest or weed control at 250 g/ha with Avena fatua (AVEFA) [7] and in the assay on Lolium perenne (LOLPE) [8] was 90% each time.

For the compound `CCc1ccc(Oc2ccc(F)cc2Cl)cc1C1=C(O)CC(C)(C)CC1=O` [Example A-70], the pest or weed control at 250 g/ha was found to be 100% in assay [1]; 60% in assay [2]; 10% in the assay with Avena fatua (AVEFA) [3]; 50% in the assay on Lolium perenne (LOLPE) [4]; 70% in assay [5]; 30% in assay [6]. In addition, the pest or weed control at 250 g/ha with Avena fatua (AVEFA) [7] and in the assay on Lolium perenne (LOLPE) [8] was 10% each time.

For `CCCOC(=O)OC1=C(c2cc(Oc3ccc(C#N)cc3F)ccc2CC)C(=O)C(C)(C)OC1(C)C` [Example P-6], the “ECHCG damage to plant (100=total damage to plant; 0=no damage to plant)” value in assay [1] stood at 100; in assay [5], 90. For the same compound, the “ALOMY damage to plant (100=total damage to plant; 0=no damage to plant)” value in assay [2] turned out to be 80; in assay [6] it was 90. Further, the “AVEFA damage to plant (100=total damage to plant; 0=no damage to plant)” value came to 20 with Avena fatua (AVEFA) [3] and 50 with Avena fatua (AVEFA) [7]. Besides, the “LOLPE damage to plant (100=total damage to plant; 0=no damage to plant)” value in the assay with Lolium perenne (LOLPE) [4] stood at 90; in the assay with Lolium perenne (LOLPE) [8], 70.
